Reference: PubChem BioAssay (NCI)
Values joined by “and” are separate entries in the source; they are usually repeats but may differ in a detail not shown here. Identical values can stand only once.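 How tested: cells in 96-well plates exposed to compound for 48 hours at five concentrations. GI50 marks 50% less growth. TGI: total growth inhibition.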

Columns and labels:
Experiment in all cases: DTP human tumour cell line panel, 48 h
[1] = tested on: SR leukemia
[2] = tested on: OVCAR-3 ovarian
[3] = tested on: CCRF-CEM leukemia
[4] = tested on: RXF 393 renal
[5] = tested on: NCI-H23 lung
[6] = tested on: M14 melanoma
[7] = tested on: OVCAR-5 ovarian
[8] = tested on: PC-3 prostate
[9] = tested on: HOP-92 NSCLC
[10] = tested on: BT-549 breast
[11] = tested on: MDA-N
[12] = tested on: KM12 colon
[13] = tested on: MALME-3M melanoma
[14] = tested on: T-47D breast

In the case of `COC1OC(C(=O)O)C2OC(C)(C)OC12` (stereo not given), the TGI [1] is reported as greater than 100 µM, the TGI [2] is reported as greater than 100 µM and the TGI [3] is reported as greater than 100 µM. For the same compound, the TGI [4] was greater than 100 µM, the TGI [5] was greater than 100 µM and the TGI [6] was greater than 100 µM. It also gave a TGI [7] greater than 100 µM, a TGI [8] greater than 100 µM and a TGI [9] greater than 100 µM. The TGI [10] was greater than 100 µM, the TGI [11] was greater than 100 µM and the TGI [12] was greater than 100 µM. It also gave a TGI [13] greater than 100 µM.

`CSc1nc(C)c2c(n1)N(c1ccc(Cl)cc1)CC2` was tested, and the TGI [1] was greater than 100 µM, the TGI [2] was greater than 100 µM and the TGI [3] was greater than 100 µM. For the same compound, the TGI [4] was greater than 100 µM, the TGI [14] was greater than 100 µM and the TGI [5] was greater than 100 µM. It also gave a TGI [6] greater than 100 µM, a TGI [7] greater than 100 µM and a TGI [8] greater than 100 µM. For the same compound, the TGI [9] was greater than 100 µM, the TGI [11] was greater than 100 µM and the TGI [12] was greater than 100 µM. For the same compound, the TGI [13] was greater than 100 µM.

In the case of `NC(N)=NCCCC(NC(=O)c1c2ccccc2nc2ccccc12)C(=O)O` (stereo not given), the TGI [1] is reported as greater than 100 µM, the TGI [2] is reported as greater than 100 µM and the TGI [3] is reported as greater than 100 µM. The TGI [5] was greater than 100 µM, the TGI [6] was greater than 100 µM and the TGI [7] was greater than 100 µM. It also gave a TGI [8] greater than 100 µM, a TGI [9] greater than 100 µM and a TGI [10] greater than 100 µM. The TGI [11] was greater than 100 µM and the TGI [12] was greater than 100 µM.

Compound `O=C(c1ccccc1)c1cc(Cl)ccc1NCn1nnc2ccccc21` has a TGI [1] greater than 100 µM, a TGI [2] greater than 100 µM and a TGI [3] greater than 100 µM. It also gave a TGI [4] greater than 100 µM, a TGI [5] greater than 100 µM and a TGI [6] greater than 100 µM. It also gave a TGI [9] greater than 100 µM and a TGI [12] greater than 100 µM.

Work on `COc1ccc(C23OCC(Cc4cc(OC)c(OC)cc42)C3CO)cc1OC` (stereo not given) yielded a TGI [1] greater than 100 µM, a TGI [2] greater than 100 µM and a TGI [4] greater than 100 µM. The TGI [14] was greater than 100 µM, the TGI [5] was greater than 100 µM and the TGI [6] was greater than 100 µM. For the same compound, the TGI [7] was greater than 100 µM, the TGI [8] was greater than 100 µM and the TGI [10] was greater than 100 µM. For the same compound, the TGI [12] was greater than 100 µM and the TGI [13] was greater than 100 µM.

Compound `Cc1ccc(-n2cc(-c3ccc(Cl)cc3)c3c(=N)n(N)cnc32)cc1` has a TGI [2] of 26.5 µM, a TGI [3] of 51.4 µM and a TGI [4] of 15.7 µM. The TGI [5] was 30.3 µM, the TGI [6] was 17.2 µM and the TGI [7] was 27.9 µM. The TGI [8] was 19.4 µM, the TGI [9] was 21.6 µM and the TGI [10] was 31.7 µM. For the same compound, the TGI [11] was 23.8 µM and the TGI [13] was 26.1 µM.

`CC[C@@]12CCC(=S)N(CCSc3ccccc3)[C@@H]1c1c(n(S(=O)(=O)c3ccc(OC)cc3)c3ccccc13)CC2` was tested, and the TGI [1] was greater than 100 µM, the TGI [2] was greater than 100 µM and the TGI [3] was greater than 100 µM. The TGI [4] was greater than 100 µM, the TGI [14] was greater than 100 µM and the TGI [5] was greater than 100 µM. For the same compound, the TGI [6] was greater than 100 µM, the TGI [7] was greater than 100 µM and the TGI [8] was greater than 100 µM. For the same compound, the TGI [9] was greater than 100 µM, the TGI [10] was greater than 100 µM and the TGI [12] was greater than 100 µM. It also gave a TGI [13] greater than 100 µM.

`CCc1cc2c(c3c1CCCC3=O)CC1(C2)Cc2cc(CC)c3c(c2C1)C(=O)CCC3` showed a TGI [1] of 75.1 µM, a TGI [2] greater than 100 µM and a TGI [3] greater than 100 µM. For the same compound, the TGI [4] was greater than 100 µM, the TGI [14] was greater than 100 µM and the TGI [5] was greater than 100 µM. For the same compound, the TGI [6] was greater than 100 µM, the TGI [7] was greater than 100 µM and the TGI [8] was greater than 100 µM. The TGI [9] was greater than 100 µM, the TGI [11] was greater than 100 µM and the TGI [12] was greater than 100 µM. The TGI [13] was greater than 100 µM.

Work on `C=CCN1C(=O)CC(=O)N(NC2=NNC3(C(=O)N2)c2ccccc2-c2ccccc23)C1=S` yielded a TGI [1] of 61.1 µM, a TGI [2] greater than 100 µM and a TGI [3] greater than 100 µM. For the same compound, the TGI [4] was greater than 100 µM, the TGI [5] was greater than 100 µM and the TGI [6] was greater than 100 µM. For the same compound, the TGI [7] was greater than 100 µM, the TGI [8] was greater than 100 µM and the TGI [9] was 61.8 µM. It also gave a TGI [10] greater than 100 µM, a TGI [11] greater than 100 µM and a TGI [13] greater than 100 µM.

`COc1ccc2c(c1)CC[C@@H]1C2CC[C@]2(C)C(=C=CP(=O)(O)O)CCC12` (stereo not given in full) was tested, and the TGI [1] was greater than 100 µM, the TGI [2] was greater than 100 µM and the TGI [4] was greater than 100 µM. For the same compound, the TGI [14] was greater than 100 µM, the TGI [5] was greater than 100 µM and the TGI [6] was greater than 100 µM. For the same compound, the TGI [7] was greater than 100 µM, the TGI [8] was greater than 100 µM and the TGI [9] was greater than 100 µM. It also gave a TGI [11] greater than 100 µM, a TGI [12] greater than 100 µM and a TGI [13] greater than 100 µM.

For `O=C1c2ccccc2C(=O)c2sc(Nc3cc(Cl)ccc3Cl)nc21`, the TGI [1] was greater than 100 µM, the TGI [2] was 4.07 µM and the TGI [3] was greater than 100 µM. For the same compound, the TGI [4] was 39.3 µM, the TGI [14] was 34.3 µM and the TGI [5] was 28.7 µM. The TGI [6] was greater than 42.6 µM, the TGI [7] was 45.6 µM and the TGI [8] was 18.5 µM. It also gave a TGI [9] of 36.2 µM, a TGI [11] of 3.41 µM and a TGI [12] of 26.5 µM. It also gave a TGI [13] of 3.33 µM.

With `N#Cc1c(N)nc(Sc2ccccc2N)c(C#N)c1-c1ccccc1` the TGI [1] was greater than 100 µM, the TGI [5] was 63.7 µM and the TGI [6] was greater than 100 µM. The TGI [7] was greater than 100 µM, the TGI [8] was 33.3 µM and the TGI [9] was 64.3 µM. For the same compound, the TGI [10] was 95.9 µM, the TGI [12] was 94.8 µM and the TGI [13] was 46.2 µM.

In the case of `c1cc2c(cc1[C@@H]1OC[C@@H]3[C@H]1CO[C@H]3c1ccc3c(c1)OCO3)OCO2`, the TGI [2] is reported as greater than 100 µM, the TGI [3] is reported as greater than 100 µM and the TGI [4] is reported as 89.3 µM. The TGI [14] was greater than 100 µM, the TGI [5] was greater than 100 µM and the TGI [6] was greater than 100 µM. It also gave a TGI [7] greater than 100 µM, a TGI [8] greater than 100 µM and a TGI [9] greater than 100 µM. For the same compound, the TGI [11] was greater than 100 µM, the TGI [12] was 71 µM and the TGI [13] was greater than 100 µM.

In the case of `CC(C)=CCCC1(C)C2COC(=O)C21` (stereo not given), the GI50 [1] is reported as greater than 100 µM, the TGI [1] is reported as greater than 100 µM and the GI50 [3] is reported as 39.3 µM and 12.3 µM. For the same compound, the TGI [3] was > 100 µM and 52.6 µM, the TGI [4] was greater than 100 µM and the GI50 [5] was > 100 µM and 26.7 µM. For the same compound, the TGI [5] was > 100 µM and 60.1 µM, the TGI [7] was greater than 100 µM and the TGI [8] was greater than 100 µM. For the same compound, the GI50 [9] was > 100 µM and 34.2 µM, the TGI [9] was > 100 µM and 97.3 µM and the TGI [10] was greater than 100 µM. The GI50 [11] was > 100 µM and 31.7 µM, the TGI [11] was greater than 100 µM and the GI50 [12] was > 100 µM and 42.1 µM. For the same compound, the TGI [12] was greater than 100 µM and the TGI [13] was greater than 100 µM.

For `CC[C@]1(Cc2ccc(OC)c(OC)c2)C=[N+]([O-])O[C@H](OC2CCCC2(c2ccccc2)c2ccccc2)[C@@H]1OC(=O)C(C)(C)C` (stereo not given in full), the TGI [1] was greater than 100 µM, the TGI [2] was 2.92 µM and the TGI [3] was greater than 40.3 µM. It also gave a TGI [4] of 3.53 µM, a TGI [14] of 7.04 µM and a TGI [5] of 14.8 µM. For the same compound, the TGI [6] was greater than 40.8 µM, the TGI [7] was greater than 39.9 µM and the TGI [8] was 14.8 µM. The TGI [9] was 18.2 µM, the TGI [10] was greater than 44.5 µM and the TGI [12] was 5.84 µM.

`S=c1[nH]nc(CCCCCCCCc2n[nH]c(=S)o2)o1` gave a TGI [2] greater than 100 µM, a TGI [3] greater than 100 µM and a TGI [4] greater than 100 µM. For the same compound, the TGI [5] was greater than 100 µM, the TGI [6] was greater than 100 µM and the TGI [7] was greater than 100 µM. It also gave a TGI [8] greater than 100 µM, a TGI [10] greater than 100 µM and a TGI [11] greater than 100 µM. For the same compound, the TGI [12] was greater than 100 µM.

Work on `CC(CC=O)Nc1nn2c(=O)c3ccccc3nc2s1` (stereo not given) yielded a TGI [1] greater than 100 µM, a TGI [2] greater than 100 µM and a TGI [3] greater than 100 µM. The TGI [4] was greater than 100 µM, the TGI [14] was greater than 100 µM and the TGI [5] was greater than 100 µM. For the same compound, the TGI [6] was greater than 100 µM, the TGI [7] was greater than 100 µM and the TGI [8] was greater than 100 µM. The TGI [9] was greater than 100 µM, the TGI [10] was greater than 100 µM and the TGI [12] was greater than 100 µM. For the same compound, the TGI [13] was greater than 100 µM.

In the case of `O=C(NCc1ccccc1Cl)c1c(O)c2ccccc2[nH]c1=O`, the TGI [1] is reported as greater than 100 µM, the TGI [2] is reported as greater than 100 µM and the TGI [3] is reported as greater than 100 µM. The TGI [4] was 63.1 µM, the TGI [5] was greater than 100 µM and the TGI [7] was greater than 100 µM. The TGI [8] was greater than 100 µM, the TGI [9] was 58.7 µM and the TGI [10] was greater than 100 µM. For the same compound, the TGI [11] was greater than 100 µM, the TGI [12] was greater than 100 µM and the TGI [13] was greater than 100 µM.
